Test results reported in paper PMC3866151, “Phenylthiophenecarboxamide Antagonists of the Olfactory Receptor Co-Receptor Subunit from a Mosquito” (PLoS ONE, 2013).

Columns and labels:
Cqui\Orco+Cqui\Or21 [1] = biological target: T1, Cqui\Orco+Cqui\Or21 (Culex quinquefasciatus, UniProt Q309I4); assay: Inhibition of odorant (3-methylindole) activation of the OR expressed in Xenopus oocytes, two-electrode voltage clamp; format: cell-based; conditions: for IC50: read-out: IC50 for inhibition of responses to 3MI; for Mechanism of inhibition of odorant activation: 10 nM, 100 nM, 1 µM 3-methylindole
Procedure: (§1) Oocytes were surgically removed from mature Xenopus laevis frogs. Follicle cells were removed by treatment with Collagenase B (Boehringer Mannhem) for 2 hours at room temperature. Capped cRNA encoding each OR subunit was generated using mMessage mMachine kits (Ambion). For heteromeric ORs, 25 ng of cRNA encoding each OR subunit was injected into Stage V-VI Xenopus oocytes. For expression of Orco alone, 50 ng of cRNA was injected. Oocytes were incubated at 18°C in Barth's saline (in mM: 88 NaCl, 1 KCl, 2.4 NaHCO3, 0.3 CaNO3, 0.41 CaCl2, 0.82 MgSO4, 15 HEPES, pH 7.6, and 150 µg/ml ceftazidime) for 2–5 days prior to electrophysiological recording.
(§2) Odorant and Orco ligand induced currents were recorded under two-electrode voltage clamp, using an automated parallel electrophysiology system (OpusExpress 6000A; Molecular Devices). Oocytes were perfused with ND96 (in mM: 96 NaCl, 2 KCl, 1 CaCl2, 1 MgCl2, 5 HEPES, pH 7.5). Orco ligands were prepared as 50 or 100 mM stock solutions in DMSO and then diluted into ND96 on the day of the experiment. Unless otherwise noted, applications were for 60 sec at a flow rate of 1.0 ml/min, with extensive washing in ND96 at 4.6 ml/min between applications. For the concentration-response protocol in Figure 1d , applications were for 20 sec at a flow rate of 1.65 ml/min. Micropipettes were filled with 3 M KCl and had resistances of 0.2–2.0 MΩ. The holding potential was -70 mV. Current responses, filtered (4-pole, Bessel, low pass) at 20 Hz (-3 db) and sampled at 100 Hz, were captured and stored using OpusXpress 1.1 software (Molecular Devices).
(§3) To screen for antagonist activity, oocytes were exposed to 60 sec applications of OLC12 with 4 min washes between applications (Figures 1B, 3, 4 and 5A,C,E) or 60 sec applications of odorant with 20 min washes between applications (Figures 1C,D and 5B,D,F). Oocytes were then exposed to a 90 sec application of antagonist candidate, immediately followed by a 60 sec co-application of antagonist candidate and OLC12 or odorant. Oocytes were then exposed to a final 60 sec application of OLC12 or odorant. The current response in the presence of antagonist candidate was compared to the preceding responses to OLC12 or odorant alone.
(§4) Initial analysis of electrophysiological data was done using Clampfit 9.1 software (Molecular Devices). Curve fitting and statistical analyses were done using Prism 5 (Graphpad). Concentration-response data were fit to the equation: I = Imax/(1+(EC50/X)^n) where I represents the current response at a given concentration of odorant, X; Imax is the maximal response; EC50 is the concentration of agonist yielding a half maximal response; n is the apparent Hill coefficient. Concentration-inhibition data were fit to the equation: I = Imax / (1+ (X/IC50)^n) where I represents the current response at a given concentration of inhibitor, X; Imax is the maximal response in the absence of inhibitor; IC50 is the concentration of inhibitor present that still allows a half maximal response from odorant; n is the apparent Hill coefficient. Statistical significance was assessed using a two-tailed unpaired t test, an F test, or a one-way analysis of variance followed by the Dunnett's post-test, as appropriate.

Cqui\Orco+Cqui\Or21 [2] = biological target: T1, Cqui\Orco+Cqui\Or21; assay: Antagonism of Orco agonist (OLC12) activation of the OR expressed in Xenopus oocytes, two-electrode voltage clamp; format: cell-based; conditions: for Mechanism of inhibition of Orco agonist (OLC12) activation: OLC12 raised from 3 µM to 30 µM; for IC50: read-out: IC50 for inhibition of Cqui\Orco+Cqui\Or21 activation by OLC12; for Inhibition of the OLC12 response compared with OX1a (screen): 100 µM compound; for Inhibition of the OLC12 response compared with OX1a (screen) / Antagonist activity compared with the parent analog or OX1a (second screen): 3 µM OLC12; for Antagonist activity compared with the parent analog or OX1a (second screen): 30 µM compound
Procedure: as §1, §2, §3, §4

[3] = activated by 3 µM OLC12, Xenopus oocytes

T1 sequence (Q309I4 entry or part of it): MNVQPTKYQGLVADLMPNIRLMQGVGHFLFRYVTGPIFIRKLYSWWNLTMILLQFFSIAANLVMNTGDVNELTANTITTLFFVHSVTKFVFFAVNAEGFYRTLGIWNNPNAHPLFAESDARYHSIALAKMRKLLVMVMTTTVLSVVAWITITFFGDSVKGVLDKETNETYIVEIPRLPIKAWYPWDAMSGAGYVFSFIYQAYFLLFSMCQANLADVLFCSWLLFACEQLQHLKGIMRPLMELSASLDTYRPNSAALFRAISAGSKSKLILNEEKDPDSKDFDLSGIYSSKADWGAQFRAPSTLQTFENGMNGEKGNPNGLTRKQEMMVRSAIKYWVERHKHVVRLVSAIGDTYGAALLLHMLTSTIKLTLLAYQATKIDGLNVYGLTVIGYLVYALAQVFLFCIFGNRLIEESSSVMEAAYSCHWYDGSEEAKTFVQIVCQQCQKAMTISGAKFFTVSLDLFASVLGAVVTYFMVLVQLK

SMILES | nH (apparent Hill coefficient of concentration-inhibition curve) (Cqui\Orco+Cqui\Or21 [2]; [3]) | IC50 (Cqui\Orco+Cqui\Or21 [2]; [3]) | Inhibition of the OLC12 response compared with OX1a (screen) (Cqui\Orco+Cqui\Or21 [2]) | Antagonist activity compared with the parent analog or OX1a (second screen) (Cqui\Orco+Cqui\Or21 [2]) | also measured
CCc1ccc(NC(=O)c2cccs2)cc1 [OX1a, N-(4-ethylphenyl)-2-thiophenecarboxamide] | 1.0 ± 0.1 | 51 ± 6 µM | – | – | IC50 (Cqui\Orco+Cqui\Or21 [1]; 10 nM 3MI): 47 ± 5 µM; Mechanism of inhibition of odorant activation (Cqui\Orco+Cqui\Or21 [1]): non-competitive mechanism; IC50 (Cqui\Orco+Cqui\Or21 [1]; 100 nM 3MI): 42 ± 7 µM; IC50 (Cqui\Orco+Cqui\Or21 [1]; 1 µM 3MI): 50 ± 4 µM; Effect on maximal response to 3-methylindole (Cqui\Orco+Cqui\Or21 [1]; 50 µM OX1a co-applied): significantly reduced; Mechanism of inhibition of Orco agonist (OLC12) activation (Cqui\Orco+Cqui\Or21 [2]): competitive antagonist
Cc1ccc(NC(=O)c2cccs2)cc1 [OX1b, N-(4-methylphenyl)-2-thiophenecarboxamide] | – | – | significantly improved antagonist activity | – | –
Cc1cccc(NC(=O)c2cccs2)c1 [OX1c, N-(3-methylphenyl)-2-thiophenecarboxamide] | – | – | significantly improved antagonist activity | – | –
O=C(Nc1ccc(Br)cc1)c1cccs1 [OX1d, N-(4-bromophenyl)-2-thiophenecarboxamide] | – | – | failed to significantly improve antagonist activity | – | –
COc1ccc(NC(=O)c2cccs2)cc1 [OX1e, N-(4-methoxyphenyl)-2-thiophenecarboxamide] | – | – | significantly improved antagonist activity | – | –
O=C(Nc1cccc(Br)c1)c1cccs1 [OX1f, N-(3-bromophenyl)-2-thiophenecarboxamide] | – | – | significant improvement | – | –
O=C(Nc1cccc(Cl)c1)c1cccs1 [OX1g, N-(3-cholorphenyl)-2-thiophenecarboxamide] | 1.0 ± 0.1 | 13 ± 1 µM | significant improvement | – | –
COc1cccc(NC(=O)c2cccs2)c1 [OX1h, N-(3-methoxyphenyl)-2-thiophenecarboxamide] | – | – | significantly improved antagonist activity | – | –
CC(=O)c1cccc(NC(=O)c2cccs2)c1 [OX1i, N-(3-acetylphenyl)-2-thiophenecarboxamide] | 1.3 ± 0.1 | 14 ± 1 µM | significantly improved antagonist activity | – | –
CCc1ccccc1NC(=O)c1cccs1 [OX1j, N-(2-ethylphenyl)-2-thiophenecarboxamide] | 0.9 ± 0.1 | 5.4 ± 0.4 µM | significantly improved antagonist activity | – | –
Cc1cccc(NC(=O)c2cccs2)c1C [OX1k, N-(2,3-dimethylphenyl)-2-thiophenecarboxamide] | 0.8 ± 0.1 | 1.7 ± 0.2 µM | significantly improved antagonist activity | – | –
Cc1cc(C)c(NC(=O)c2cccs2)c(C)c1 [OX1l, N-mesityl-2-thiophenecarboxamide] | 1.5 ± 0.1 | 3.8 ± 0.3 µM | significantly improved antagonist activity | – | IC50 (Cqui\Orco+Cqui\Or21 [1]; 10 nM 3MI): 17 ± 1 µM; Mechanism of inhibition of odorant activation (Cqui\Orco+Cqui\Or21 [1]): non-competitive mechanism; IC50 (Cqui\Orco+Cqui\Or21 [1]; 100 nM 3MI): 16 ± 1 µM; IC50 (Cqui\Orco+Cqui\Or21 [1]; 1 µM 3MI): 19 ± 2 µM; Mechanism of inhibition of Orco agonist (OLC12) activation (Cqui\Orco+Cqui\Or21 [2]): competitive mechanism; IC50 (Cqui\Orco+Cqui\Or21 [2]; activated by 10 µM OLC12): 8.3 ± 0.5 µM; IC50 (Cqui\Orco+Cqui\Or21 [2]; activated by 30 µM OLC12): 24 ± 3 µM
Cc1cccc(NC(=O)c2sccc2Cl)c1 [OX1m, 3-chloro-N-(3-methylphenyl)-2-thiophenecarboxamide] | – | – | improved antagonist activity | – | –
CCN(C(=O)c1cccs1)c1ccccc1 [OX1n, N-ethyl-N-phenyl-2-thiophenecarboxamide] | – | – | improved antagonist activity | – | –
Cc1ccc(NC(=O)c2sccc2Cl)c(C)c1 [OX1o, 3-chloro-N-(2,4-dimethylphenyl)-2-thiophenecarboxamide] | 1.1 ± 0.1 | 5.5 ± 0.7 µM | – | significant loss of antagonist activity | –
Cc1cccc(C)c1NC(=O)c1sccc1Cl [OX1p, 3-chloro-N-(2,6-dimethylphenyl)-2-thiophenecarboxamide] | 1.2 ± 0.1 | 7.2 ± 0.6 µM | – | significant loss of antagonist activity | –
O=C(Nc1cccc(Cl)c1)c1sccc1Cl [OX1q, 3-chloro-N-(3-chlorophenyl)-2-thiophenecarboxamide] | 0.9 ± 0.1 | 7.8 ± 0.9 µM | – | well tolerated | –
CCC(=O)c1ccc(NC(=O)c2cccs2)cc1 [OX1r, N-(4-propionylphenyl)-2-thiophenecarboxamide] | – | – | – | significant loss of antagonist activity | –
CCCC(=O)c1ccc(NC(=O)c2cccs2)cc1 [OX1s, N-(4-butyrylphenyl)-2-thiophenecarboxamide] | – | – | – | significant loss of antagonist activity | –
O=C(NC1CCCCC1)c1cccs1 [OX2, N-cyclohexyl-2-thiophenecarboxamide] | – | – | failed to significantly improve antagonist activity | – | –
Cc1ccc(CNC(=O)c2cccs2)cc1 [OX3a, N-(4-methylbenzyl)-2-thiophenecarboxamide] | 1.0 ± 0.1 | 1.7 ± 0.2 µM | improved antagonist activity | – | IC50 (Cqui\Orco+Cqui\Or21 [1]; 10 nM 3MI): 2.6 ± 0.3 µM; Mechanism of inhibition of odorant activation (Cqui\Orco+Cqui\Or21 [1]): non-competitive mechanism; IC50 (Cqui\Orco+Cqui\Or21 [1]; 100 nM 3MI): 2.3 ± 0.2 µM; IC50 (Cqui\Orco+Cqui\Or21 [1]; 1 µM 3MI): 1.9 ± 0.1 µM; Mechanism of inhibition of Orco agonist (OLC12) activation (Cqui\Orco+Cqui\Or21 [2]): competitive mechanism; IC50 (Cqui\Orco+Cqui\Or21 [2]; activated by 10 µM OLC12): 12 ± 1 µM; IC50 (Cqui\Orco+Cqui\Or21 [2]; activated by 30 µM OLC12): 28 ± 2 µM
O=C(NCc1ccccc1)c1cccs1 [OX3b, N-benzyl-2-thiophenecarboxamide] | 1.1 ± 0.1 | 5.1 ± 0.5 µM | – | well tolerated | –
CCc1ccccc1NC(=O)C=Cc1cccs1 [OX4, N-(2-ethylphenyl)-3-(2-thienyl)-2-propenamide] | 0.9 ± 0.1 | 2.1 ± 0.3 µM | – | well tolerated | IC50 (Cqui\Orco+Cqui\Or21 [1]; 10 nM 3MI): 3.4 ± 0.6 µM; Mechanism of inhibition of odorant activation (Cqui\Orco+Cqui\Or21 [1]): non-competitive mechanism; IC50 (Cqui\Orco+Cqui\Or21 [1]; 100 nM 3MI): 2.7 ± 0.4 µM; IC50 (Cqui\Orco+Cqui\Or21 [1]; 1 µM 3MI): 2.5 ± 0.3 µM; Mechanism of inhibition of Orco agonist (OLC12) activation (Cqui\Orco+Cqui\Or21 [2]): competitive mechanism; IC50 (Cqui\Orco+Cqui\Or21 [2]; activated by 10 µM OLC12): 8.8 ± 1.2 µM; IC50 (Cqui\Orco+Cqui\Or21 [2]; activated by 30 µM OLC12): 73 ± 5 µM
